Experimental data published in ChEMBL document CHEMBL1201862, “PubChem BioAssay data set” (2004).
Activity calls are given as the source filed them. Rule as the data show it: actives have a measured IC50 and inactives only a lower limit.

Biological target: Envelope glycoprotein gp160 (Human immunodeficiency virus 1, UniProt Q6QLK5)
Experiment: cell-free HIV fusion peptide-binding blockers – biochemical, uHTS, fluorescence dequenching, […] (AID 1986)

Chain of Envelope glycoprotein gp160 (Q6QLK5 whole entry, the tested form may be a part): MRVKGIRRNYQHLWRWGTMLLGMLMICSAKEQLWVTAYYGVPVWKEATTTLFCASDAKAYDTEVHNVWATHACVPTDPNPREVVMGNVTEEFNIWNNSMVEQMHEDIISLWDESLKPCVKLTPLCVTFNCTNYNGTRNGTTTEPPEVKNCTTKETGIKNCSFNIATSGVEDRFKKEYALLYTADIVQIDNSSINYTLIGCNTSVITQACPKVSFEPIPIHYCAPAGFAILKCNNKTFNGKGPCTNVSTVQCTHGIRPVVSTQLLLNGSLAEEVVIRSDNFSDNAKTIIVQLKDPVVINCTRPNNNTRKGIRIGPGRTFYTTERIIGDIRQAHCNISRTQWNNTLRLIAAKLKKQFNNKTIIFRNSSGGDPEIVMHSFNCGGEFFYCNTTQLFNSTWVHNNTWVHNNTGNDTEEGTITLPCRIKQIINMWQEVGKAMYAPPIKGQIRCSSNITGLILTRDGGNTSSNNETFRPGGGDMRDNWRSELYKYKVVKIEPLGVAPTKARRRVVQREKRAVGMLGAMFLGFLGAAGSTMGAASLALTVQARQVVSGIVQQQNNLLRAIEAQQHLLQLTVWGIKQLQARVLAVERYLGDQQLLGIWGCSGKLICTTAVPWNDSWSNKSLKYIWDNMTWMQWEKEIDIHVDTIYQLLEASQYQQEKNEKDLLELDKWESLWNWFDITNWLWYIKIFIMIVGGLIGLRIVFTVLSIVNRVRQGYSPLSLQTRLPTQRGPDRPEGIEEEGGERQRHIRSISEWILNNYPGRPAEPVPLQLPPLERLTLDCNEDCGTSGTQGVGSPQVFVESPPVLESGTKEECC

Cc1ccc(N2C(=O)/C(=C/c3ccc(CN(CCC#N)S(C)(=O)=O)o3)C(=O)NC2=S)cc1C
IC50: 21.6 µM (active)

COc1ccc2c(c1)cc(C(=O)N/N=C/c1c(O)c(C(=O)O)cc3ccccc13)n2C
IC50: 7.59 µM (active)

O=C(O)/C=C/C(=O)Nc1ccc(C2(c3ccc(NC(=O)/C=C/C(=O)O)cc3)c3ccccc3-c3ccccc32)cc1
IC50: 15 µM (active)

O=C(O)C(c1ccccc1)N1C(=O)/C(=C\c2ccc(O)c(O)c2)SC1=S (stereo unspecified)
IC50: 13.2 µM (active)

Cc1ccc(Cl)cc1N1CCN(C(=O)Cc2c(C(=O)O)[nH]c3ccc(Cl)cc23)CC1
IC50: 24.5 µM (active)

O=C(COc1cccc2ccccc12)Nc1ccc(Cl)cc1C(=O)O
IC50: 31.3 µM (active)
